As a reminder, the GI50 is the concentration that inhibits growth by half.

One assay deals with KASUMI-1. Description: Cell growth inhibition test, KASUMI-1. The class given is cell-based. The note with it: Homo sapiens, 72 h; KASUMI-1, Leukemia, 3 days, CellTiter-Glo. The procedure: (§1) A cell growth inhibition test was carried out by treating a cultured cancer cell line with a test compound for a given period and then counting the number of viable cells by CellTiter-Glo Luminescent Cell Viability Assay (manufactured by Promega Corp.).
(§2) The following cells were inoculated to a 384-well plate containing the compound prepared in advance at predetermined concentrations. […]
(§3) The cells thus inoculated were cultured at 37° C. for 3 days under 5% CO2. […] Then, luminescence intensity was measured using a plate reader.
(§4) The number of viable cells and luminescence intensity have been confirmed to correlate with each other. Therefore, the rate of cell growth was calculated according to the following expression: Rate of cell growth (T/C %) of a test compound-supplemented well=100×[(B−C)/(A−C)] wherein A represents the luminescence intensity (final culture date) of a test compound-free well; B represents the luminescence intensity (final culture date) of a test compound-containing well; and C represents the luminescence intensity (day of cell inoculation) of a well at the start of contact of the cells with the test compound.
(§5) T/C % at the concentration of each of the serially diluted test compounds was determined. […]
In general terms: Cellular ATP, detected with luciferase, serves as a proxy for viable cell number.

A further assay concerns A-172. The assay can be described thus: Cell growth inhibition test, A-172. The note with it: Homo sapiens, 72 h; A-172, Brain tumor Central Nerve System, 3 days, CellTiter-Glo. The class given is cell-based. The procedure:
as §1, §2, §3, §4, §5

For another assay, the system named is SK-OV-3. The assay can be described thus: Cell growth inhibition test, SK-OV-3. The class given is cell-based. The note with it: Homo sapiens, 72 h; SK-OV-3, Ovary cancer, 3 days, CellTiter-Glo. The procedure:
as §1, §2, §3, §4, §5

Another assay concerns COR-L23. The assay can be described thus: Cell growth inhibition test, COR-L23. The note with it: Homo sapiens, 72 h; COR-L23, Lung cancer, 3 days, CellTiter-Glo. The format is cell-based. The procedure: as §1, §2, §3, §4, §5
The next assay has as its system D283 Med. The assay can be described thus: Cell growth inhibition test, D283 Med. The class given is cell-based. The note with it: Homo sapiens, 72 h, Brain tumor Central Nerve System, 3 days, CellTiter-Glo. On the procedure: as §1, §2, §3, §4, §5
For a further assay, the system named is T24. The assay can be described thus: Cell growth inhibition test, T24. As to conditions: Homo sapiens, T-24, 72 h; T24, Bladder cancer, 3 days, CellTiter-Glo. The format is cell-based. On the procedure: as §1, §2, §3, §4, §5
For the next assay, the system named is ACHN. The assay can be described thus: Cell growth inhibition test, ACHN. The format is cell-based. The note with it: Homo sapiens, 72 h, Kidney cancer, 3 days, CellTiter-Glo. The procedure:
as §1, §2, §3, §4, §5

For a further assay, the system named is DOHH-2. Description: Cell growth inhibition test, DOHH-2. The note with it: Homo sapiens, 72 h; DOHH-2, Lymphoma, 3 days, CellTiter-Glo. The class given is cell-based. On the procedure:
as §1, §2, §3, §4, §5

A further assay concerns Hep G2. Description: Cell growth inhibition test, Hep G2. The class given is cell-based. As to conditions: Homo sapiens, HepG2, 72 h; Hep G2, Liver cancer, 3 days, CellTiter-Glo. On the procedure: as §1, §2, §3, §4, §5
Another assay concerns HCT-15. The assay can be described thus: Cell growth inhibition test, HCT-15. The class given is cell-based. As to conditions: Homo sapiens, 72 h; HCT-15, Large intestine cancer, 3 days, CellTiter-Glo. The procedure:
as §1, §2, §3, §4, §5

In another assay the test system is OVCAR-5. The assay can be described thus: Cell growth inhibition test, OVCAR-5. As to conditions: Homo sapiens, 72 h; OVCAR-5, Ovary cancer, 3 days, CellTiter-Glo. The class given is cell-based. On the procedure:
as §1, §2, §3, §4, §5

Assay [1] concerns Liver cancer cell line HUH-7 cells. The assay can be described thus: Antitumor test, mouse subcutaneous transplantation model, HUH-7. The class given is in vivo. The note with it: HUH-7 in nude mice, 4 consecutive days, tumor measured three days after final administration. From the text: In vivo test of test compound: Antitumor test using mouse subcutaneous transplantation model
Liver cancer cell line HUH-7 cells were dissociated from a culture flask by trypsin treatment, then suspended in an RPMI1640 medium containing 10% FBS, and then centrifuged to remove the supernatant. The cells were washed with PBS twice and then suspended in BD Matrigel Basement Membrane Matrix (manufactured by BD Biosciences). The cell suspension was subcutaneously transplanted at a dose of 5×10^6 cells/mouse to the right axillary regions of 6-week-old nude mice (CAnN.Cg-Foxn1[nu]/CrlCrlj[Foxn1nu/Foxn1nu], Charles River Laboratories Japan, Inc.). The test was conducted by using cancer-bearing mice having an estimated tumor volume (major axis×minor axis×minor axis/2) of 70 to 180 mm3 and grouping the cancer-bearing mice without significant difference in average estimated tumor volume from a negative control group. The compound of Example 113 was suspended in solvent (EtOH/DMA/Solutol HS-15/PEG400/5% HMPC). The suspension was orally administered to each mouse twice a day (BID) at a dose of 75 or 150 mg/kg for 4 consecutive days. Three days after the final administration date, the tumor sizes were measured.
The rate of tumor growth inhibition was also calculated in this test according to the following expression and is shown in a table. […]

As for `CCOc1ccc(Cl)cc1C(=O)NCC(C)(C)CC(=O)Nc1c([C@H](C)CN(C)C)n(C)n(-c2ccccc2)c1=O` [Example 68, 5-Chloro-N-[4-({5-[(1R)-2-(dimethylamino)-1-methylethyl]-1-methyl-3-oxo-2-phenyl-2,3-dihydro-1H-pyrazol-4-yl}amino)-2,2-dimethyl-4-oxobutyl]-2-ethoxybenzamide], the GI50 turned out to be 140 nM in the assay on KASUMI-1; 380 nM in the assay on A-172; 510 nM in the assay on SK-OV-3; 200 nM with COR-L23; 130 nM in the assay with D283 Med; 650 nM with T24. For the same compound, the GI50 stood at 1800 nM with ACHN; 240 nM with DOHH-2; 580 nM with Hep G2; 2700 nM with HCT-15; 540 nM in the assay on OVCAR-5.
As for `CCOc1cc(F)c(Cl)cc1C(=O)NCC(C)(C)CC(=O)Nc1c(COC)n(C)n(-c2ccccc2)c1=O` [Example 113, 5-Chloro-2-ethoxy-4-fluoro-N-(4-{[5-(methoxymethyl)-1-methyl-3-oxo-2-phenyl-2,3-dihydro-1H-pyrazol-4-yl]amino}-2,2-dimethyl-4-oxobutyl)benzamide], the 50% growth inhibitory concentration (GI50) is 230 nM in the assay with KASUMI-1; 490 nM in the assay on A-172; 700 nM in the assay with SK-OV-3; 420 nM with COR-L23; 230 nM with D283 Med; 490 nM in the assay with T24. For the same compound, the GI50 in the assay on ACHN stood at 970 nM; in the assay on DOHH-2, 460 nM; in the assay on Hep G2 it was 380 nM; in the assay with HCT-15, 800 nM; in the assay with OVCAR-5, 570 nM. For the same compound, the “Rate of tumor growth inhibition (%)” value in assay [1] (75 mg/kg orally BID) is recorded as 46%; in [1] (150 mg/kg orally BID), 63%.
Regarding `CCOc1ncc(Cl)cc1C(=O)NCC(C)(C)CC(=O)Nc1c([C@H](C)CN(C)C)n(C)n(-c2ccccc2)c1=O` [Example 73, 5-Chloro-N-[4-({5-[(1R)-2-(dimethylamino)-1-methylethyl]-1-methyl-3-oxo-2-phenyl-2,3-dihydro-1H-pyrazol-4-yl}amino)-2,2-dimethyl-4-oxobutyl]-2-ethoxypyridine-3-carboxamide], the GI50 in the assay with KASUMI-1 worked out at 240 nM; with A-172, 600 nM; with SK-OV-3, 980 nM; in the assay with COR-L23, 550 nM; in the assay with D283 Med it was 310 nM; in the assay with T24, 850 nM. Moreover, the concentration for 50% growth inhibition (GI50) stood at 2500 nM in the assay on ACHN; 630 nM in the assay with DOHH-2; 1100 nM in the assay with Hep G2; 4000 nM in the assay with HCT-15; 750 nM in the assay with OVCAR-5.

The record behind these values is US20170107207A1, “AMINOPYRAZOLONE DERIVATIVE” (DAIICHI SANKYO COMPANY, LIMITED, priority 2014, published 2017).
